Data set [1] in a line: Population pharmacokinetics of artemether/dihydroartemisinin alone and with efavirenz, nevirapine or lopinavir/ritonavir (non-linear mixed effects modelling of plasma concentrations). The settings on record: for Vc/F, apparent volume of distribution of the central compartment, population estimate [RSE %] / CL/F, apparent elimination clearance, population estimate [RSE %]: HIV-infected adults, oral artemether-lumefantrine, plasma; for CL/F, apparent elimination clearance, population estimate [RSE %]: parent fully converted to metabolite; for exposure: nevirapine or lopinavir/ritonavir (all three antiretroviral drugs); for LOPCL/F, effect on elimination clearance by concomitant treatment with lopinavir/ritonavir: concomitant lopinavir/ritonavir 400/100 mg, positive = increase. Type of data set: in vivo, human. From the text:
Study 1 was a parallel group study in HIV-infected patients. Inclusion criteria were age >18 years, informed written consent and a confirmed HIV diagnosis. Exclusion criteria were anaemia (haemoglobin levels below 8 g dl^-1), viral loads above 400 counts ml^-1, malaria parasitaemia, abnormal liver or renal function, pregnancy, the use of substances which inhibit or induce CYP enzymes or P-glycoprotein, use of herbal medicines, prolonged QT interval, or any intercurrent illness. Ethics approval was received from the Uganda National HIV/AIDS Research Committee (ARC 056) and the Uganda National Council of Science and Technology (HS 195) and the study was registered with http://ClinicalTrials.gov (NCT 00619944). Study 2 was a three period, crossover study in HIV-infected patients. Inclusion and exclusion criteria were the same as for study 1 (i.e. age >18 years, informed written consent and a confirmed HIV diagnosis) except that there were no restrictions based on viral load, and patients with hypersensitivity to artemisinins, lumefantrine or halofantrine or any history of cardiac disease were excluded from the study. Ethics approval was received from the Uganda National HIV/AIDS Research Committee (ARC 059) and from the Uganda National Council of Science and Technology (HS 196). The study was registered at http://ClinicalTrials.gov (NCT00620438). Patients in the first arm were treated with 400/100 mg of lopinavir/ritonavir (Aluvia®, Abbott Laboratories, Abbott Park, Illinois, USA) and two nucleoside reverse transcriptase inhibitors (zidovudine and didanosine or tenofovir and emtricitabine, regional non-controlled procurement). The drugs were taken twice daily for at least 1 month before the start of the study. Patients in the second arm had not yet started their HIV therapy. At the initiation of the study all patients received a single dose of 80 mg artemether and 480 mg lumefantrine (four tablets) (Coartem®, Novartis Pharma AG, Basel, Switzerland; Batch number: F0660). Venous plasma samples were drawn at 1, 2, 4, 6, 8, 12, 24, 48 and 72 h post-dose. At the start of the study, all patients received a standard treatment of artemether and lumefantrine (80/480 mg twice daily for 3 days; Coartem®). Plasma samples were collected after the last dose at 1, 2, 4, 8, 12, 24, 48, 72, 96 and 120 h post-dosing. […] Patients received HIV treatment alone for 1 month and then were given a standard six dose treatment of artemether and lumefantrine concomitantly. Plasma samples were again collected after the last artemether-lumefantrine dose. Artemether/dihydroartemisinin and lumefantrine were quantified in plasma samples according to previously published methods. Artemether and dihydroartemisinin were measured using solid phase extraction and liquid chromatography coupled with tandem mass spectrometric detection. The total coefficient of variation (%CV) was less than 6% and the lower limit of quantification was set to 1.4 ng ml^-1. Lumefantrine was measured using solid phase extraction followed by liquid chromatography with ultraviolet detection. The total coefficient of variation was below 6% and the lower limit of quantification was set to 25 ng ml^-1. Modelling and simulations were performed in NONMEM v7.12 (Icon Development Solutions, Ellicott City, Maryland, USA). Model discrimination was based on the objective function value (OFV) which is proportional to -2 times the log-likelihood of the data. […]2.6.0 was used to document the modelling process. R v2.14.2 (the R Foundation for Statistical Computing, Vienna, Austria) and the package Xpose v4.3.5 [43] was used to perform model diagnostics. Perl-speaks-NONMEM v3.5.3 was used for automation throughout the modelling process. Data below the limit of quantification were initially omitted or modelled as categorical data (M3-method), if necessary. […]

The conditions of data set [2]: cited from earlier work.
Data set [3] can be described thus: Population pharmacokinetics of lumefantrine/desbutyl-lumefantrine alone and with efavirenz, nevirapine or lopinavir/ritonavir (non-linear mixed effects modelling of plasma concentrations). The settings on record: for CL/F, apparent elimination clearance, population estimate [RSE %]: parent fully converted to metabolite; for LOPCL/F, effect on elimination clearance by concomitant treatment with lopinavir/ritonavir: concomitant lopinavir/ritonavir 400/100 mg; for LOPCL/F, effect on elimination clearance by concomitant treatment with lopinavir/ritonavir / EFZCL/F, effect on elimination clearance by concomitant treatment with efavirenz: positive = increase; for EFZCL/F, effect on elimination clearance by concomitant treatment with efavirenz: concomitant efavirenz 600 mg. Type of data set: in vivo, human. From the text:
Study 1 was a parallel group study in HIV-infected patients. Inclusion criteria were age >18 years, informed written consent and a confirmed HIV diagnosis. Exclusion criteria were anaemia (haemoglobin levels below 8 g dl^–1), viral loads above 400 counts ml^−1, malaria parasitaemia, abnormal liver or renal function, pregnancy, the use of substances which inhibit or induce CYP enzymes or P-glycoprotein, use of herbal medicines, prolonged QT interval, or any intercurrent illness. Ethics approval was received from the Uganda National HIV/AIDS Research Committee (ARC 056) and the Uganda National Council of Science and Technology (HS 195) and the study was registered with http://ClinicalTrials.gov (NCT 00619944).
Study 2 was a three period, crossover study in HIV-infected patients. Inclusion and exclusion criteria were the same as for study 1 (i.e. age >18 years, informed written consent and a confirmed HIV diagnosis) except that there were no restrictions based on viral load, and patients with hypersensitivity to artemisinins, lumefantrine or halofantrine or any history of cardiac disease were excluded from the study. Ethics approval was received from the Uganda National HIV/AIDS Research Committee (ARC 059) and from the Uganda National Council of Science and Technology (HS 196). The study was registered at http://ClinicalTrials.gov (NCT00620438).
Patients in the first arm were treated with 400/100 mg of lopinavir/ritonavir (Aluvia®, Abbott Laboratories, Abbott Park, Illinois, USA) and two nucleoside reverse transcriptase inhibitors (zidovudine and didanosine or tenofovir and emtricitabine, regional non-controlled procurement). The drugs were taken twice daily for at least 1 month before the start of the study. Patients in the second arm had not yet started their HIV therapy. At the initiation of the study all patients received a single dose of 80 mg artemether and 480 mg lumefantrine (four tablets) (Coartem®, Novartis Pharma AG, Basel, Switzerland; Batch number: F0660). Venous plasma samples were drawn at 1, 2, 4, 6, 8, 12, 24, 48 and 72 h post-dose.
At the start of the study, all patients received a standard treatment of artemether and lumefantrine (80/480 mg twice daily for 3 days; Coartem®). Plasma samples were collected after the last dose at 1, 2, 4, 8, 12, 24, 48, 72, 96 and 120 h post-dosing. After 1 week of wash-out, patients started HIV treatment with either nevirapine (200 mg) or efavirenz (600 mg) combined with the nucleoside reverse transcriptase inhibitors zidovudine and lamivudine. Patients received HIV treatment alone for 1 month and then were given a standard six dose treatment of artemether and lumefantrine concomitantly. Plasma samples were again collected after the last artemether-lumefantrine dose.
Artemether/dihydroartemisinin and lumefantrine were quantified in plasma samples according to previously published methods. Artemether and dihydroartemisinin were measured using solid phase extraction and liquid chromatography coupled with tandem mass spectrometric detection. […] Lumefantrine was measured using solid phase extraction followed by liquid chromatography with ultraviolet detection.
Desbutyl-lumefantrine was measured using liquid chromatography (Model 1200 system, Agilent Technologies) coupled with tandem mass spectrometric detection (API5000 triple-quadrupole system, AB Sciex). Desbutyl-lumefantrine and its analogue internal standard (C28H28CL3NO [39]) were extracted from plasma samples (100 μl) by protein precipitation followed by phospholipid removal (Hybrid SPE-Precipitation 96-wellplate, 575656-U, Supelco).

The mark [4] stands for this setting: HIV-infected adults, oral artemether-lumefantrine, plasma.
Where [5] appears, read: concomitant lopinavir/ritonavir.
The mark [6] stands for this setting: stated in methods, no reference given.

Structures are written as SMILES. Like-named read-outs stand apart in the source and are kept apart here.

As usually defined, the half-life is the time in which the quantity being followed falls by half.

As to `CO[C@H]1O[C@@H]2O[C@@]3(C)CC[C@H]4[C@H](C)CC[C@@H]([C@H]1C)[C@@]24OO3` [artemether], in data set [1], the “Vc/F, apparent volume of distribution of the central compartment, population estimate [RSE %]” value (from here on “Vc/F, apparent volume of distribution … [RSE %]”) was 1090 [8.69] l; the “CL/F, apparent elimination clearance, population estimate [RSE %]” value (“CL/F … [RSE %]” below) was 317 [8.25] l h^−1; the “LOPCL/F, effect on elimination clearance by concomitant treatment with lopinavir/ritonavir” value (“LOPCL/F, effect … with lopinavir/ritonavir” below) came out at 32.8%. Besides, the “Hill coefficient in the maturation model (auto-induction)” value in data set [1] (MMAX 1 FIX, MF50 62 FIX, reduced dataset) is 0.445 [43.9 ^‡]. In data set [1] (concomitant efavirenz), the “decrease of relative bioavailability” value was found to be 71% and the exposure result is given as “decreased”. For the same compound, the “LOPCL/F, effect … with lopinavir/ritonavir” value in data set [1] (listed as Artemether) is 32.8 [21.5] %. For the same compound, in data set [1] (concomitant nevirapine), the “decrease of relative bioavailability” value was found to be 66%. Further, in data set [1] (three transit compartments), the “MTT, mean transit time of the absorption phase, population estimate [RSE %]” value is 0.970 [6.58] h. For the same compound, the terminal half-life in data set [2] was 1.5 to 2.0 h.

Consider `CCCCNCC(O)c1cc(Cl)cc2c1-c1ccc(Cl)cc1/C2=C/c1ccc(Cl)cc1` (centres unmarked) [desbutyl-lumefantrine], for which the “CL/F … [RSE %]” value in data set [3] (setting [4]) is 489 [5.98] l h^−1. In addition, the exposure result in data set [3] (setting [5]) is given as “decreased exposure”; in data set [3] (concomitant nevirapine, due to lower bioavailability of lumefantrine) it was “decreased”. The “LOPCL/F, effect … with lopinavir/ritonavir” value in data set [3] is 392%; in data set [3] (listed as Desbutyl-Lumefantrine), 392 [17.6] %.

Take `C[C@H]1[C@@H](O)O[C@@H]2O[C@@]3(C)CC[C@H]4[C@H](C)CC[C@@H]1[C@@]24OO3` [dihydroartemisinin]: in data set [1], the “Vc/F, apparent volume of distribution … [RSE %]” value was 14.9 [39.8] l; the “CL/F … [RSE %]” value was 160 [4.93] l h^−1; the “LOPCL/F, effect … with lopinavir/ritonavir” value came out at 143%. For the same compound, the exposure result in data set [1] (concomitant efavirenz) is on record as “decreased”. In data set [1] (listed as Dihydroartemisinin), the “LOPCL/F, effect … with lopinavir/ritonavir” value is 143 [19.7] %. Also, the “decrease of elimination clearance” value in data set [1] (concomitant nevirapine) stood at 44%. For the same compound, the “NEVCL/F, effect on elimination clearance by concomitant treatment with nevirapine” value in data set [1] (concomitant nevirapine 200 mg) is −44.5 [14.5] %. The half-life in data set [2] is 0.8 to 2.1 h. The terminal half-life in data set [2] (setting [6]) was 1 to 2 h.

Turning to `CCCCN(CCCC)CC(O)c1cc(Cl)cc2c1-c1ccc(Cl)cc1/C2=C/c1ccc(Cl)cc1` (centres unmarked) [lumefantrine], in data set [3] (setting [4]), the “Q/F, inter-compartment clearance, population estimate [RSE %]” value was 2.86 [19.4] l h^−1; the “VP/F, apparent volume of distribution of the peripheral compartment, population estimate [RSE %]” value is 111 [9.14] l; the “Vc/F, apparent volume of distribution … [RSE %]” value is 68.9 [27.1] l; the “CL/F … [RSE %]” value is 4.77 [5.30] l h^−1. Also, in data set [3], the “EFZCL/F, effect on elimination clearance by concomitant treatment with efavirenz” value is given as 72.6% and the “LOPCL/F, effect … with lopinavir/ritonavir” value is −62.1 [8.48] %. The “EFZCL/F, effect on elimination clearance by concomitant treatment with efavirenz” value in data set [3] (listed as Lumefantrine) was 72.6 [17.2] %. Moreover, in data set [3] (setting [5]), the “decrease of elimination clearance” value amounted to 62%. Moreover, in data set [3] (concomitant nevirapine), the “lowering of relative bioavailability” value stood at 25%. Also, the “MTT, mean transit time of the absorption, population estimate [RSE %]” value in data set [3] (one transit compartment) was 6.27 [21.2] h. In data set [2], the elimination half-life is 48 to 96 h; the “increase of exposure for a 100% dose increase (dose limited absorption, assumed in simulations)” value was 70%; the “systemic exposure relative to its metabolite desbutyl-lumefantrine” value is 85- to 300 fold. The terminal half-life in data set [2] (setting [6]) was 79.2 h.

Source of the values: paper PMC4386948, “Artemether-lumefantrine co-administration with antiretrovirals: population pharmacokinetics and dosing implications” (British Journal of Clinical Pharmacology, 2014).
